Laboratory results taken from patent US7129368B2, “Platinum carboxylate anticancer compounds” (Sonus Pharmaceuticals, Inc., priority 2004, dated 2006).

Columns and labels:
[1] = test system: HCT-116 colorectal carcinoma cells; assay: ALAMAR BLUE cytotoxicity assay in HCT-116 cells; assay type: cell-based; conditions: HCT-116, ALAMAR BLUE, 48 hours incubation with drug
Procedure: (§1) ALAMAR BLUE Assay. […] Cytotoxicity was measured in two cell lines: a colorectal carcinoma cell line (HCT-116); and a non-small cell lung cancer cell line (NCI-H460). The marker used to quantify cell growth inhibition was ALAMAR BLUE, a non-fluorescent blue dye that is reduced to a fluorescent red product by viable cells. The amount of fluorescence is proportional to the number of viable cells.
(§2) Screening in HCT-116 cells. HCT-116 colorectal carcinoma cells (ATCC # CCL-247) were inoculated into a set of twenty-four 96-well microtiter plates containing 100 μl of McCoy's 5A media (HyClone, Logan, Utah) per well to a plating density of 7500 cells per well. After cell inoculation, the microtiter plates were incubated at 37° C., 5% CO2, 95% air and 100% relative humidity for 24 hours. After 24 hours incubation, ALAMAR BLUE reagent (Biosource, Camarillo, Calif.) was added to two plates to a final concentration of 10% v/v in each well. The plates were returned to the incubator for 4 hours and then read in a Perkin Elmer HTS 7000 Bio Assay Reader using an excitation wavelength of 535 nm and an emission wavelength of 590 nm to determine the cell population at the time of drug addition—time zero.
(§3) Two no-drug control plates were also prepared.
(§4) Following drug addition, the plates were incubated for an additional 48 hours at the conditions above.
(§5) After 48 hours of incubation the plates were removed and ALAMAR BLUE reagent was added to a final concentration of 10% v/v to each well. The plates were returned to the incubator for 4 hours and read in the Bio Assay Reader as described above.

[2] = test system: NCI-H460 non-small cell lung cancer cells; assay: ALAMAR BLUE cytotoxicity assay in NCI-H460 cells; assay type: cell-based; conditions: H-460, ALAMAR BLUE, 48 hours incubation with drug
Procedure: as §1, §2, §3, §4, §5
Screening in NCI-H460 cells. The screening protocol above was repeated using NCI-H460 non-small cell lung cancer cells (ATCC # HTB-177) plated to a density of 10,000 cells per well in RPMI media (Mediatech, Inc., Herndon, Va.).

[3] = test system: HT29 colorectal carcinoma cell line; assay: MTS cytotoxicity assay in HT29 cells; assay type: cell-based; conditions: 72 hours of treatment, read-out: Growth Inhibition (GI50)
Procedure: (§6) MTS Assay. […] Cytotoxicity was measured in six cell lines: two colorectal carcinoma cell lines, HT29 (ATCC # CCL-218) and HCT-116 (ATCC # CCL-247); two small cell lung cancer cell lines, NCI-H69 (ATCC # HTB-119) and NCI-H69/AR (ATCC # CRL-11351); and two ovarian cancer cell lines, A2780 (ECACC # 93112519) and A2780/DPPt (similar strain, A2780 cis, available at ECACC # 93112517). Viable cell number was measured using the MTS cell viability assay ([…] 96 AQueous One Solution Cell Proliferation Assay kit available from Promega, USA). Cell growth inhibition was quantified by measuring absorbance at 490 nm, which is directly proportional to the number of living cells in culture.
(§7) The platinum compounds were prepared as 10 mM stock solutions in water containing 5% dextrose (D5W). Cisplatin was prepared in saline. Dosing solutions were prepared by serial dilution of the stock solutions in cell culture medium to provide final concentrations of 0.006–100 μM.
(§8) All tumor lines were propagated under sterile conditions and incubated at 37° C. in HEPA-filtered CO2 tissue culture incubators with 5% CO2 and 95% humidity in colorless RPMI 1640 medium (Mediatech, Hemdon, Va.) containing 5% fetal bovine serum (complete medium). […]
(§9) Viable cell number was measured by the MTS dye conversion assay after a total of 72 hours of treatment. […] The absorbance was measured at 490 nm on a Coulter microplate reader.

[4] = test system: HCT-116 colorectal carcinoma cell line; assay: MTS cytotoxicity assay in HCT-116 cells; assay type: cell-based; conditions: HCT-116, MTS, 72 hours of treatment; read-out: Growth Inhibition (GI50)
Procedure: as §6, §7, §8, §9

[5] = test system: NCI-H69 small cell lung cancer cell line; assay: MTS cytotoxicity assay in NCI-H69 cells; assay type: cell-based; conditions: 72 hours of treatment, read-out: Growth Inhibition (GI50)
Procedure: as §6, §7, §8, §9

[6] = test system: NCI-H69/AR small cell lung cancer cell line; assay: MTS cytotoxicity assay in NCI-H69/AR cells; assay type: cell-based; conditions: 72 hours of treatment, read-out: Growth Inhibition (GI50)
Procedure: as §6, §7, §8, §9

[7] = test system: A2780 ovarian cancer cell line; assay: MTS cytotoxicity assay in A2780 cells; assay type: cell-based; conditions: 72 hours of treatment, read-out: Growth Inhibition (GI50)
Procedure: as §6, §7, §8, §9

[8] = test system: A2780/DPPt ovarian cancer cell line; assay: MTS cytotoxicity assay in A2780/DPPt cells; assay type: cell-based; conditions: A2780/DDPT, 72 hours of treatment, read-out: Growth Inhibition (GI50)
Procedure: MTS Assay. […] Cytotoxicity was measured in six cell lines: two colorectal carcinoma cell lines, HT29 (ATCC # CCL-218) and HCT-116 (ATCC # CCL-247); two small cell lung cancer cell lines, NCI-H69 (ATCC # HTB-119) and NCI-H69/AR (ATCC # CRL-11351); and two ovarian cancer cell lines, A2780 (ECACC # 93112519) and A2780/DPPt (similar strain, A2780 cis, available at ECACC # 93112517). Viable cell number was measured using the MTS cell viability assay ([sequence] 96 AQueous One Solution Cell Proliferation Assay kit available from Promega, USA). Cell growth inhibition was quantified by measuring absorbance at 490 nm, which is directly proportional to the number of living cells in culture.

[9] = Effect of pH on CDTA-diplatinum/CDTA-monoplatinum interconversion (HPLC); assay type: physicochemical
Procedure: Cyclohexane-trans-1,2-diaminetetraacetic-acid-diplatinum (CDTA-diplatinum) was prepared according to Example 1. Three solutions of CDTA-diplatinum were prepared: 1 mg/ml in water (pH ˜6.5) (Solution 1); 1 mg/ml in 0.01 N NaOH (pH˜9.5) (Solution 2); and 1 mg/ml in 0.01 N HCl (pH˜2) (Solution 3).

[10] = Solution 1: 1 mg/ml in water (pH ~6.5)
[11] = Solution 2: 1 mg/ml in 0.01 N NaOH (pH ~9.5)
[12] = Solution 3: 1 mg/ml in 0.01 N HCl (pH ~2)

Compound | GI50 [1] [µM] | GI50 [2] [µM] | GI50 [3] [µM] | GI50 [4] [µM] | GI50 [5] [µM] | GI50 [6] [µM] | GI50 [7] [µM] | GI50 [8] [µM] | percentage of species by HPLC in a solution of CDTA-diplatinum (Example 1) [9, 10] [%] | percentage of species by HPLC in a solution of CDTA-diplatinum (Example 1) [9, 11] [%] | percentage of species by HPLC in a solution of CDTA-diplatinum (Example 1) [9, 12] [%]
N.N.O=C([O-])C1(C(=O)[O-])CCC1.[Pt+2] [Carboplatin, cis-diamine[1,1-cyclobutanedicarboxylato(2-)]—O,O′-platinum (II), reference compound] | 159 | 9 |  |  |  |  |  |  |  |  | 
N.N.[Cl][Pt][Cl] [Cisplatin, cis-[PtCl2(NH3)2], reference compound] | 4 | 469 |  |  |  |  |  |  |  |  | 
cyclohexane-trans-1,2-diaminetetraacetic-acid-diplatinum [CDTA-diplatinum] | 0.55 | 0.371 | 78 | 24 | 6.69 | 8.9 | 5.45 | 49 | 54 | 1 | 2
cyclohexane-trans-1,2-diaminetetraacetic-acid-monoplatinum [CDTA-monoplatinum] | 6.4 | 9.71 | 65 | 38 | 10 | 18 | 5.57 |  | 45 | 99 | 98
